Source: publication PMC9821906, “Synthesis of New Triazole-Based Thiosemicarbazone Derivatives as Anti-Alzheimer’s Disease Candidates: Evidence-Based In Vitro Study” (Molecules, 2022)

What was measured:
[1] = biological target: acetylcholinesterase (AChE) (Homo sapiens, UniProt P22303); type: biochemical
Experimental: (§1) Based on previously described methods, in vitro study of AChE inhibitory profile was calculated. In order to make a stock solution, compounds being analyzed were dissolved in DMSO (1 mg/mL). In addition, the working solutions were also prepared by using serial dilution (1–100 μg/mL). The solution of AChE enzyme (20 μL; 0.1 U/mL), analogues being tested with different concentration and buffer of sodium phosphate (150 μL; pH 8.0; 0.1 M) were preincubated appropriately at 25 °C. The process was initiated as DTNB (10 mM; 10 μL) and […] (14 mM; 10 μL) were accumulated. The resulting residue was mixed (by using cyclomixer) and put on incubation for 10 min at 25 °C. Instead of compounds being tested using 10 μL DMSO, the absorbance against blank reading was calculated with a microplate reader at 410 nm.
(§2) By plotting a nonlinear graph between inhibition and concentration, IC50 was calculated using GraphPad Prism 5.3.

[2] = biological target: butyrylcholinesterase (BuChE) (Homo sapiens, UniProt P06276); type: biochemical
Sequence of butyrylcholinesterase (BuChE) (P06276 29-602): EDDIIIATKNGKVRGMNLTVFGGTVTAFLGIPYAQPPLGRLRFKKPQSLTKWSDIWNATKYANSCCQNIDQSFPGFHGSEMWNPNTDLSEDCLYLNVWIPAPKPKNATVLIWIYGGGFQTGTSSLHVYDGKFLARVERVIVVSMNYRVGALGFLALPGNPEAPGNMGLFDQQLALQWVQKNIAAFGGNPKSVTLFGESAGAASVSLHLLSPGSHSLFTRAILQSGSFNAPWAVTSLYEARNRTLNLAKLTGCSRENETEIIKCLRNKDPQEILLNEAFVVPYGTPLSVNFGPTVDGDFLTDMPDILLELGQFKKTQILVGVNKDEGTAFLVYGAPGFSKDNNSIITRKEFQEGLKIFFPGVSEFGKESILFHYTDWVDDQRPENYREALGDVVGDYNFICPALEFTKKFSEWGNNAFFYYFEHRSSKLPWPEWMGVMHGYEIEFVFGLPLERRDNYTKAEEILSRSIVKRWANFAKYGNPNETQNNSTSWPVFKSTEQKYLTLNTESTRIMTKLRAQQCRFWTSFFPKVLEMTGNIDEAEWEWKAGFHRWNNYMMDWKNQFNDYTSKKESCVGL
Experimental: as §1, §2
In order to explore the inhibition profile of in vitro BuChE enzyme, a similar procedure was adopted. For measurement of BuChE activity, the solution containing BuChE enzyme was used.

Sequence of acetylcholinesterase (AChE) (P22303 32-614, species assumed): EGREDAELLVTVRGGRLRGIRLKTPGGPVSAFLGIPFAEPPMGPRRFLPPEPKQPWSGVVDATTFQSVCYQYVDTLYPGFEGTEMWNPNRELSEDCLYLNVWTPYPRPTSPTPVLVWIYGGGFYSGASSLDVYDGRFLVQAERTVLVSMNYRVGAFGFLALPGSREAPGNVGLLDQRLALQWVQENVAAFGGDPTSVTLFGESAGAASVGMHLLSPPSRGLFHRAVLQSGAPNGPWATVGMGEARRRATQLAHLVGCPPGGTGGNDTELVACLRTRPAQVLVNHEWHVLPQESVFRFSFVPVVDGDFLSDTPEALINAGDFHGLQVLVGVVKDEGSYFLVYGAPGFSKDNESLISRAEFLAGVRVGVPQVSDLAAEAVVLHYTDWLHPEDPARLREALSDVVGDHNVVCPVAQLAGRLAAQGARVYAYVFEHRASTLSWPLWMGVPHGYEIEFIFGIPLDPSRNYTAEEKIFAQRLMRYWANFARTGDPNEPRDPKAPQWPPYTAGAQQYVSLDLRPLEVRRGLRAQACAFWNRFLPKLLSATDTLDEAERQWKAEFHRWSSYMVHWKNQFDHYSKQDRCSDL

`O=[N+]([O-])c1ccc(-c2nnc(SC/C(=N/NC(=S)Nc3cc(Cl)c(Cl)cc3[N+](=O)[O-])c3ccccc3Br)[nH]2)cc1` [6a, (.E)-2-(1-(2-bromophenyl)-2-((5-(4-nitrophenyl)-4H-1,2,4-triazol-3-yl)thio)ethylidene)-N-(4,5-dichloro-2-nitrophenyl)hydrazine-1-carbothioamide] was tested, and the IC50 [1] was 2.2 ± 0.1 µM, the “Selectivity Index” value [1] was 1.77 and the IC50 [2] was 3.9 ± 0.1 µM.

With `O=[N+]([O-])c1ccc(-c2nnc(SC/C(=N/NC(=S)Nc3ccccc3)c3ccc(-c4ccccc4)cc3)[nH]2)cc1` [6c, (.E)-2-(1-([1,1′-biphenyl]-4-yl)-2-((5-(4-nitrophenyl)-4H-1,2,4-triazol-3-yl)thio)ethylidene)-N-phenylhydrazine-1-carbothioamide] the “AChE IC50” value [1] was “completely inactive” and the “BuChE IC50” value [2] was “completely inactive”.

`Cc1ccc(-c2ccc(NC(=S)N/N=C(/CSc3nnc(-c4ccc([N+](=O)[O-])cc4)[nH]3)c3ccc(-c4ccccc4)cc3)cc2)cc1` [6d, (.E)-2-(1-([1,1′-biphenyl]-4-yl)-2-((5-(4-nitrophenyl)-4H-1,2,4-triazol-3-yl)thio)ethylidene)-N-(4′-methyl-[1,1′-biphenyl]-4-yl)hydrazine-1-carbothioamide] was tested, and the “AChE IC50” value [1] was “completely inactive” and the “BuChE IC50” value [2] was “completely inactive”.

For `O=[N+]([O-])c1ccc(-c2nnc(SC/C(=N/NC(=S)Nc3cccc([N+](=O)[O-])c3)c3ccc(-c4ccccc4)cc3)[nH]2)cc1` [6e, (.E)-2-(1-([1,1′-biphenyl]-4-yl)-2-((5-(4-nitrophenyl)-4H-1,2,4-triazol-3-yl)thio)ethylidene)-N-(3-nitrophenyl)hydrazine-1-carbothioamide], the IC50 [1] was 4.7 ± 0.1 µM, the “Selectivity Index” value [1] was 1.34 and the IC50 [2] was 6.3 ± 0.1 µM.

For `COc1ccc(OC)c(/C(CSc2nnc(-c3ccc([N+](=O)[O-])cc3)[nH]2)=N\NC(=S)Nc2ccc(C)cc2[N+](=O)[O-])c1` [6f, (.E)-2-(1-(2,5-dimethoxyphenyl)-2-((5-(4-nitrophenyl)-4H-1,2,4-triazol-3-yl)thio)ethylidene)-N-(4-methyl-2-nitrophenyl)hydrazine-1-carbothioamide], the IC50 [1] was 2.4 ± 0.1 µM, the “Selectivity Index” value [1] was 1.96 and the IC50 [2] was 4.7 ± 0.1 µM.

`COc1ccc(OC)c(/C(CSc2nnc(-c3ccc([N+](=O)[O-])cc3)[nH]2)=N\NC(=S)Nc2ccc([N+](=O)[O-])cc2)c1` [6g, (.E)-2-(1-(2,5-dimethoxyphenyl)-2-((5-(4-nitrophenyl)-4H-1,2,4-triazol-3-yl)thio)ethylidene)-N-(4-nitrophenyl)hydrazine-1-carbothioamide] was tested, and the IC50 [1] was 2.1 ± 0.1 µM, the “Selectivity Index” value [1] was 2.04 and the IC50 [2] was 4.3 ± 0.1 µM.

In the case of `Cc1ccc(NC(=S)N/N=C(/CSc2nnc(-c3ccc([N+](=O)[O-])cc3)[nH]2)c2ccc(Br)cc2)c([N+](=O)[O-])c1` [6h, (.E)-2-(1-(4-bromophenyl)-2-((5-(4-nitrophenyl)-4H-1,2,4-triazol-3-yl)thio)ethylidene)-N-(4-methyl-2-nitrophenyl)hydrazine-1-carbothioamide], the IC50 [1] is reported as 9.1 ± 0.2 µM, the “Selectivity Index” value [1] is reported as 1.23 and the IC50 [2] is reported as 11.2 ± 0.3 µM.

For `CN(C)c1cc(Cl)c(NC(=S)N/N=C(/CSc2nnc(-c3ccc([N+](=O)[O-])cc3)[nH]2)c2ccc(-c3ccccc3)cc2)cc1Cl` [6j, (.E)-2-(1-([1,1′-biphenyl]-4-yl)-2-((5-(4-nitrophenyl)-4H-1,2,4-triazol-3-yl)thio)ethylidene)-N-(2,5-dichloro-4-(dimethylamino)phenyl)hydrazine-1-carbothioamide], the IC50 [1] was 11.3 ± 0.3 µM, the “Selectivity Index” value [1] was 1.09 and the IC50 [2] was 12.3 ± 0.3 µM.

For `Cc1ccc(-c2ccc(NC(=S)N/N=C(/CSc3nnc(-c4ccc([N+](=O)[O-])cc4)[nH]3)c3ccc(Br)cc3)cc2)cc1` [6k, (.E)-2-(1-(4-bromophenyl)-2-((5-(4-nitrophenyl)-4H-1,2,4-triazol-3-yl)thio)ethylidene)-N-(4′-methyl-[1,1′-biphenyl]-4-yl)hydrazine-1-carbothioamide], the IC50 [1] was 12.2 ± 0.3 µM, the “Selectivity Index” value [1] was 1.15 and the IC50 [2] was 14.1 ± 0.4 µM.

With `Cc1ccc(/C(CSc2nnc(-c3ccc([N+](=O)[O-])cc3)[nH]2)=N\NC(=S)Nc2cc(Cl)c(Cl)cc2[N+](=O)[O-])c([N+](=O)[O-])c1` [6l, (.E)-N-(4,5-dichloro-2-nitrophenyl)-2-(1-(4-methyl-2-nitrophenyl)-2-((5-(4-nitrophenyl)-4H-1,2,4-triazol-3-yl)thio)ethylidene)hydrazine-1-carbothioamide] the IC50 [1] was 4.6 ± 0.01 µM, the “Selectivity Index” value [1] was 1.28 and the IC50 [2] was 5.9 ± 0.1 µM.

With `Cc1ccc(NC(=S)N/N=C(/CSc2nnc(-c3ccc([N+](=O)[O-])cc3)[nH]2)c2ccc(Cl)c(Cl)c2)c([N+](=O)[O-])c1` [6m, (.E)-2-(1-(3,4-dichlorophenyl)-2-((5-(4-nitrophenyl)-4H-1,2,4-triazol-3-yl)thio)ethylidene)-N-(4-methyl-2-nitrophenyl)hydrazine-1-carbothioamide] the IC50 [1] was 2.7 ± 0.1 µM, the “Selectivity Index” value [1] was 1.41 and the IC50 [2] was 3.8 ± 0.1 µM.

With `O=[N+]([O-])c1ccc(NC(=S)N/N=C(/CSc2nnc(-c3ccc([N+](=O)[O-])cc3)[nH]2)c2ccc(Cl)c(Cl)c2)cc1` [6n, (.E)-2-(1-(3,4-dichlorophenyl)-2-((5-(4-nitrophenyl)-4H-1,2,4-triazol-3-yl)thio)ethylidene)-N-(4-nitrophenyl)hydrazine-1-carbothioamide] the IC50 [1] was 0.7 ± 0.05 µM, the “Selectivity Index” value [1] was 2.43 and the IC50 [2] was 1.7 ± 0.05 µM.

With `O=[N+]([O-])c1ccc(-c2nnc(SC/C(=N/NC(=S)Nc3ccccc3)c3ccc(Cl)c(Cl)c3)[nH]2)cc1` [6o, (.E)-2-(1-(3,4-dichlorophenyl)-2-((5-(4-nitrophenyl)-4H-1,2,4-triazol-3-yl)thio)ethylidene)-N-phenylhydrazine-1-carbothioamide] the IC50 [1] was 2.5 ± 0.3 µM, the “Selectivity Index” value [1] was 1.24 and the IC50 [2] was 3.1 ± 0.4 µM.

For `Cc1ccc(-c2ccc(NC(=S)N/N=C(/CSc3nnc(-c4ccc([N+](=O)[O-])cc4)[nH]3)c3ccc(Cl)c(Cl)c3)cc2)cc1` [6p, (.E)-2-(1-(3,4-dichlorophenyl)-2-((5-(4-nitrophenyl)-4H-1,2,4-triazol-3-yl)thio)ethylidene)-N-(4′-methyl-[1,1′-biphenyl]-4-yl)hydrazine-1-carbothioamide], the IC50 [1] was 3.2 ± 0.1 µM, the “Selectivity Index” value [1] was 1.44 and the IC50 [2] was 4.6 ± 0.1 µM.

For `Cc1ccc(NC(=S)N/N=C(/CSc2nnc(-c3ccc([N+](=O)[O-])cc3)[nH]2)c2ccccc2[N+](=O)[O-])c([N+](=O)[O-])c1` [6r, (.E)-N-(4-methyl-2-nitrophenyl)-2-(1-(2-nitrophenyl)-2-((5-(4-nitrophenyl)-4H-1,2,4-triazol-3-yl)thio)ethylidene)hydrazine-1-carbothioamide], the IC50 [1] was 1.3 ± 0.05 µM, the “Selectivity Index” value [1] was 1.69 and the IC50 [2] was 2.2 ± 0.1 µM.

In the case of `O=[N+]([O-])c1ccc(NC(=S)N/N=C(/CSc2nnc(-c3ccc([N+](=O)[O-])cc3)[nH]2)c2ccccc2[N+](=O)[O-])cc1` [6s, (.E)-N-(4-nitrophenyl)-2-(1-(2-nitrophenyl)-2-((5-(4-nitrophenyl)-4H-1,2,4-triazol-3-yl)thio)ethylidene)hydrazine-1-carbothioamide], the IC50 [1] is reported as 1.4 ± 0.05 µM, the “Selectivity Index” value [1] is reported as 1.64 and the IC50 [2] is reported as 2.3 ± 0.1 µM.

`COc1cccc(/C(CSc2nnc(-c3ccc([N+](=O)[O-])cc3)[nH]2)=N\NC(=S)Nc2ccc(C)cc2[N+](=O)[O-])c1` [6t, (.E)-2-(1-(3-methoxyphenyl)-2-((5-(4-nitrophenyl)-4H-1,2,4-triazol-3-yl)thio)ethylidene)-N-(4-methyl-2-nitrophenyl)hydrazine-1-carbothioamide] was tested, and the IC50 [1] was 1.9 ± 0.1 µM, the “Selectivity Index” value [1] was 1.32 and the IC50 [2] was 2.5 ± 0.1 µM.

With `COc1cccc(/C(CSc2nnc(-c3ccc([N+](=O)[O-])cc3)[nH]2)=N\NC(=S)Nc2ccc([N+](=O)[O-])cc2)c1` [6u, (.E)-2-(1-(3-methoxyphenyl)-2-((5-(4-nitrophenyl)-4H-1,2,4-triazol-3-yl)thio)ethylidene)-N-(4-nitrophenyl)hydrazine-1-carbothioamide] the IC50 [1] was 2.9 ± 0.1 µM, the “Selectivity Index” value [1] was 1.28 and the IC50 [2] was 3.7 ± 0.1 µM.
